Laboratory results as given in patent EP0019764A1, “Trans-3-(4'-tert.-butyl-cyclohexyl-1')-2-methyl-1-(3'-methylpiperidino, 3',5'-dimethylpiperidino and 2', 6'-dimethylmorpholino) propane, process for their pure preparation, antimycotic agents containing them and their utilisation” (BASF Aktiengesellschaft, priority 1979, dated 1980).
Converted amounts (≈) assume the structure as drawn. Read-outs that look alike come from different tables or passages of the source.

Legend:
Epidermophyton floccosum = assay: agar dilution test, minimal inhibitory concentration; format: cell-based; settings: Stamm No 157/M, Agardilutionstest, read-out: MHK-Werte
From the text: (§1) Die Wirkung gegenüber Mikroorganismen kann nach Methoden, wie sie beispielsweise in P. Klein, Bakteriologische Grundlagen der chemotherapeutischen Laboratoriumspraxis, Springer-Verlag Berlin, 1957, beschrieben sind, aufgezeigt werden.
(§2) Beispielsweise wurde geprüft, welche minimalen Hemmkonzentrationen (MHK-Werte) im Agardilutionstest gegen pathogene Pilze erreicht werden können.
(§3) In der folgenden Tabelle 1 sind die Ergebnisse zusammengefaßt: […]

Microsporum ferrugineum = assay: as above; format: cell-based; settings: Stamm No 5/M, Agardilutionstest, read-out: MHK-Werte
From the text: as §1, §2, §3

Trichophyton rubrum = assay: as above; format: cell-based; settings: Stamm No 158/M, Agardilutionstest, read-out: MHK-Werte
From the text: as §1, §2, §3

Trichophyton violaceum = assay: as above; format: cell-based; settings: Stamm No 10/M, Agardilutionstest, read-out: MHK-Werte
From the text: as §1, §2, §3

Microsporum canis = assay: as above; format: cell-based; settings: Agardilutionstest, read-out: MHK-Werte
From the text: as §1, §2, §3

Microsporum gypseum = assay: as above; format: cell-based; settings: Nannizzia gypsea; Stamm No 156/M; Agardilutionstest; read-out: MHK-Werte
From the text: as §1, §2, §3

[1] = tested on: Trichophyton mentagrophytes; assay: as above; format: cell-based; settings: Agardilutionstest, read-out: MHK-Werte
From the text: as §1, §2, §3

[2] = tested on: Trichophyton schoenleinii; assay: as above; format: cell-based; settings: Stamm No 9/M, Agardilutionstest, read-out: MHK-Werte
From the text: as §1, §2, §3

[3] = tested on: humanpathogenen Pilzen und Hefen aus dem Verwandtschaftskreis der Dermatophyten; assay: inhibitory effect on microorganisms, trans compound compared with cis compound; format: cell-based; settings: compared with the respective cis compound; Hemmeffekte gegenüber Mikroorganismen
From the text: Aufgrund der überraschenden Feststellung, daß die reinen trans-Verbindungen gegenüber humanpathogenen Pilzen und Hefen aus dem Verwandtschaftskreis der Dermatophyten um das 10-fache und noch darüber hinaus stärker wirksam sind als die cis-Verbindungen, ist es eine Aufgabe der Erfindung, Verfahren zur Herstellung der reinen trans-Verbindungen (1) bis (3) zu entwickeln.
überraschenderweise sind die reinen trans-Verbindungen fast ausschließlich Träger der guten antimykotischen Wirkung. Verglichen mit der jeweiligen cis-Verbindung und bezogen auf die Hemmeffekte gegenüber Mikroorganismen, sind die trans-Verbindungen (1), (2) und (3) 10-fach und noch darüber hinaus stärker wirksam. Das bedeutet beispielsweise bei etwa gleichen Toxizitätswerten eine wesentliche Verbesserung der therapeutischen Breite.

[4] = acute oral toxicity (LD50) in the mouse; settings: in vivo, Maus per os
From the text: Aus diesen LD50-Werten ergibt sich für die topische und systemische Anwendung nach oraler Gabe eine genügend therapeutische Breite.

| SMILES | MIC (Epidermophyton floccosum) | MIC (Microsporum ferrugineum) | MIC (Trichophyton rubrum) | MIC (Trichophyton violaceum) | MIC (Microsporum canis; Stamm No 167/M) | MIC (Microsporum canis; Stamm No 168/M) | MIC (Microsporum canis; Stamm No 169/M) | MIC (Microsporum gypseum) | MIC ([1]; Stamm No 19/M) | MIC ([1]; Stamm No 21/M) | MIC ([1]; Stamm No 159/M) | MIC ([1]; Stamm No 160/M) | MIC ([1]; Stamm No 172/M) | MIC ([1]; Stamm No 173/M) | MIC (Microsporum canis; Stamm No 155/M) | MIC [2] | MIC ([1]; Stamm No 170/M) | MIC ([1]; Stamm No 171/M) | MIC ([1]; Stamm No 174/M) | stärker wirksam als die cis-Verbindung [3] | further results |
| --- | --- | --- | --- | --- | --- | --- | --- | --- | --- | --- | --- | --- | --- | --- | --- | --- | --- | --- | --- | --- | --- |
| CC1CCCN(CC(C)C[C@H]2CC[C@@H](C(C)(C)C)CC2)C1 (relative stereo) [(1) cis, cis- und trans-3-(4-tert.-Butyl-cyclohexyl-1)-2-methyl-1-(3'-methyl-1-piperidino)-propan] | 0.25 µg/mL (≈ 0.852 µM) | 0.0312 µg/mL (≈ 0.106 µM) | 0.25 µg/mL (≈ 0.852 µM) | 0.0625 µg/mL (≈ 0.213 µM) | 0.25 µg/mL (≈ 0.852 µM) | 0.0625 µg/mL (≈ 0.213 µM) | 0.5 µg/mL (≈ 1.7 µM) | 0.25 µg/mL (≈ 0.852 µM) | 0.5 µg/mL (≈ 1.7 µM) | 0.25 µg/mL (≈ 0.852 µM) | 0.0312 µg/mL (≈ 0.106 µM) | 0.25 µg/mL (≈ 0.852 µM) | 0.5 µg/mL (≈ 1.7 µM) | 0.25 µg/mL (≈ 0.852 µM) | – | – | – | – | – | – | – |
| CC1CCCN(CC(C)C[C@H]2CC[C@H](C(C)(C)C)CC2)C1 (relative stereo) [(1) trans, trans-3-(4'-tert.-Butyl-cyclohexyl-1')-2-methyl-1-(3'--methyl-1'-piperidino)-propan] | 0.0312 µg/mL (≈ 0.106 µM) | 0.0078 µg/mL (≈ 0.0266 µM) | 0.0312 µg/mL (≈ 0.106 µM) | 0.0156 µg/mL (≈ 0.0531 µM) | 0.0312 µg/mL (≈ 0.106 µM) | 0.0156 µg/mL (≈ 0.0531 µM) | 0.0625 µg/mL (≈ 0.213 µM) | 0.0156 µg/mL (≈ 0.0531 µM) | 0.0312 µg/mL (≈ 0.106 µM) | 0.0312 µg/mL (≈ 0.106 µM) | 0.0078 µg/mL (≈ 0.0266 µM) | 0.0312 µg/mL (≈ 0.106 µM) | 0.0625 µg/mL (≈ 0.213 µM) | 0.0312 µg/mL (≈ 0.106 µM) | 0.0156 µg/mL (≈ 0.0531 µM) | 0.0625 µg/mL (≈ 0.213 µM) | 0.0156 µg/mL (≈ 0.0531 µM) | 0.0156 µg/mL (≈ 0.0531 µM) | 0.0312 µg/mL (≈ 0.106 µM) | ≥ 10 fach | LD50 [4]: 305 mg/kg |
| CC1CC(C)CN(CC(C)C[C@H]2CC[C@@H](C(C)(C)C)CC2)C1 (relative stereo) [(2) cis, cis- und trans-3-(4'-tert.-Butyl-cyclohexyl-1')-2--methyl-1-(3',5'-dimethyl-1'-piperidino)-propan] | – | 0.0625 µg/mL (≈ 0.203 µM) | – | 0.0625 µg/mL (≈ 0.203 µM) | – | 0.0312 µg/mL (≈ 0.101 µM) | – | – | 0.25 µg/mL (≈ 0.813 µM) | – | 0.0156 µg/mL (≈ 0.0507 µM) | – | – | 0.25 µg/mL (≈ 0.813 µM) | – | 0.0625 µg/mL (≈ 0.203 µM) | 0.0625 µg/mL (≈ 0.203 µM) | 0.0625 µg/mL (≈ 0.203 µM) | – | – | – |
| CC1CC(C)CN(CC(C)C[C@H]2CC[C@H](C(C)(C)C)CC2)C1 (relative stereo) [(2) trans, trans-3-(4'-tert.-Butyl-cyclohexyl-1')-2-methyl-1-(3',5'--dimethyl-l'-piperidino)-propan] | 0.0156 µg/mL (≈ 0.0507 µM) | < 0.0078 µg/mL | 0.0312 µg/mL (≈ 0.101 µM) | < 0.0078 µg/mL | 0.0156 µg/mL (≈ 0.0507 µM) | < 0.0078 µg/mL | 0.0312 µg/mL (≈ 0.101 µM) | 0.0312 µg/mL (≈ 0.101 µM) | 0.0625 µg/mL (≈ 0.203 µM) | 0.0312 µg/mL (≈ 0.101 µM) | < 0.0078 µg/mL | 0.0312 µg/mL (≈ 0.101 µM) | 0.0312 µg/mL (≈ 0.101 µM) | 0.0312 µg/mL (≈ 0.101 µM) | 0.0312 µg/mL (≈ 0.101 µM) | 0.0156 µg/mL (≈ 0.0507 µM) | < 0.0078 µg/mL | < 0.0078 µg/mL | 0.0156 µg/mL (≈ 0.0507 µM) | ≥ 10 fach | LD50 [4]: 335 mg/kg |
| CC(CN1C[C@@H](C)O[C@@H](C)C1)C[C@H]1CC[C@@H](C(C)(C)C)CC1 (relative stereo) [(3) cis, cis- und trans-3-(4'-tert.-Butyl-cyclohexyl-l')-2--methyl-l-(2',6'-cis-dimethyl-morpholyl)-propan] | 0.25 µg/mL (≈ 0.808 µM) | 0.0312 µg/mL (≈ 0.101 µM) | > 1 µg/mL | – | 0.0625 µg/mL (≈ 0.202 µM) | 0.0625 µg/mL (≈ 0.202 µM) | – | – | 1 µg/mL (≈ 3.23 µM) | 1 µg/mL (≈ 3.23 µM) | 0.0625 µg/mL (≈ 0.202 µM) | – | 0.25 µg/mL (≈ 0.808 µM) | 0.25 µg/mL (≈ 0.808 µM) | 0.5 µg/mL (≈ 1.62 µM) | – | 0.0625 µg/mL (≈ 0.202 µM) | 0.0625 µg/mL (≈ 0.202 µM) | – | – | – |
| CC(CN1C[C@@H](C)O[C@@H](C)C1)C[C@H]1CC[C@H](C(C)(C)C)CC1 (relative stereo) [(3) trans, trans-3-(4'-tert.-Butyl-cyclohexyl-1')-2-methyl-1--(2',6'-cis-dimethylmorpholino)-propan] | 0.0312 µg/mL (≈ 0.101 µM) | < 0.0078 µg/mL | 0.0625 µg/mL (≈ 0.202 µM) | 0.0156 µg/mL (≈ 0.0504 µM) | 0.0312 µg/mL (≈ 0.101 µM) | 0.0156 µg/mL (≈ 0.0504 µM) | 0.0312 µg/mL (≈ 0.101 µM) | 0.0156 µg/mL (≈ 0.0504 µM) | 0.0312 µg/mL (≈ 0.101 µM) | 0.0625 µg/mL (≈ 0.202 µM) | < 0.0078 µg/mL | 0.0625 µg/mL (≈ 0.202 µM) | 0.0625 µg/mL (≈ 0.202 µM) | 0.0625 µg/mL (≈ 0.202 µM) | 0.0312 µg/mL (≈ 0.101 µM) | 0.0156 µg/mL (≈ 0.0504 µM) | 0.0156 µg/mL (≈ 0.0504 µM) | 0.0156 µg/mL (≈ 0.0504 µM) | 0.0156 µg/mL (≈ 0.0504 µM) | ≥ 10 fach | LD50 [4]: 2250 mg/kg |
| Clc1ccccc1C(c1ccccc1)(c1ccccc1)n1ccnc1 [Clotrimazol, reference compound] | 0.32 µg/mL (≈ 0.928 µM) | 0.16 µg/mL (≈ 0.464 µM) | 1.28 µg/mL (≈ 3.71 µM) | 0.16 µg/mL (≈ 0.464 µM) | 0.64 µg/mL (≈ 1.86 µM) | 0.16 µg/mL (≈ 0.464 µM) | 0.64 µg/mL (≈ 1.86 µM) | 0.64 µg/mL (≈ 1.86 µM) | 1.28 µg/mL (≈ 3.71 µM) | 1.28 µg/mL (≈ 3.71 µM) | 0.32 µg/mL (≈ 0.928 µM) | 0.64 µg/mL (≈ 1.86 µM) | 0.64 µg/mL (≈ 1.86 µM) | 0.64 µg/mL (≈ 1.86 µM) | 0.32 µg/mL (≈ 0.928 µM) | 0.64 µg/mL (≈ 1.86 µM) | 0.32 µg/mL (≈ 0.928 µM) | 0.32 µg/mL (≈ 0.928 µM) | 1.28 µg/mL (≈ 3.71 µM) | – | – |
| Clc1ccc(COC(Cn2ccnc2)c2ccc(Cl)cc2Cl)c(Cl)c1 (stereo not drawn) [Miconazol, reference compound] | > 1.28 µg/mL | > 1.28 µg/mL | > 1.28 µg/mL | 0.64 µg/mL (≈ 1.54 µM) | > 1.28 µg/mL | > 1.28 µg/mL | > 1.28 µg/mL | > 1.28 µg/mL | > 1.28 µg/mL | > 1.28 µg/mL | 0.32 µg/mL (≈ 0.769 µM) | > 1.28 µg/mL | 0.32 µg/mL (≈ 0.769 µM) | 0.32 µg/mL (≈ 0.769 µM) | > 1.28 µg/mL | > 1.28 µg/mL | 1.28 µg/mL (≈ 3.08 µM) | 0.64 µg/mL (≈ 1.54 µM) | > 1.28 µg/mL | – | – |
| Cc1cccc(N(C)C(=S)Oc2ccc3ccccc3c2)c1 [Tolnaftat, reference compound] | 0.32 µg/mL (≈ 1.04 µM) | 0.16 µg/mL (≈ 0.52 µM) | 0.08 µg/mL (≈ 0.26 µM) | < 0.01 µg/mL | 0.16 µg/mL (≈ 0.52 µM) | 0.04 µg/mL (≈ 0.13 µM) | 0.32 µg/mL (≈ 1.04 µM) | 0.16 µg/mL (≈ 0.52 µM) | 0.04 µg/mL (≈ 0.13 µM) | 0.32 µg/mL (≈ 1.04 µM) | 0.08 µg/mL (≈ 0.26 µM) | 0.32 µg/mL (≈ 1.04 µM) | 0.64 µg/mL (≈ 2.08 µM) | 0.32 µg/mL (≈ 1.04 µM) | 0.32 µg/mL (≈ 1.04 µM) | 0.04 µg/mL (≈ 0.13 µM) | 0.08 µg/mL (≈ 0.26 µM) | 0.16 µg/mL (≈ 0.52 µM) | 0.08 µg/mL (≈ 0.26 µM) | – | – |
